Type in all cases: in vivo
The test system of experiment [1] is DENV2-infected IFNαβγ-KO mice. In words: Platelet counts in DENV2-infected mice deficient in interferon signalling. To be noted: 10^6 pfu DENV2 IP, ketanserin 8 mg/kg IP once daily, 24 and 72 hours post-infection, n=5. The method, then:
Platelet counts of DENV2 infected mice. Mice deficient in interferon signalling (IFNαβγ-KO) were infected via intraperitoneal route (IP) with 10^6 plaque forming units (pfu) and were given either vehicle (1% DMSO) or ketanserin 8 mg/kg […]. Blood was taken via cheek bleed 24 and 72 hours post-infection and platelet counts were measured using an automated hematology analyzer. DENV2 infection induced thrombocytopenia, but ketanserin treatment was able to prevent thrombocytopenia (n=5). Mean values are presented and error bars represent the SEM. P values were determined by Student's unpaired t test; ****P<0.0001.
These mice are commonly used in the study of DENV as their deficiency in interferon signaling results in sustained DENV replication [St John, A. L., et al., eLife 2, e00481 (2013)]. IFNαβγ-KO mice were infected via the intraperitoneal route (IP) with 10^6 plaque forming units (pfu) of DENV2 and were given either vehicle (1% DMSO) or ketanserin (8 mg/kg) IP once daily thereafter. Blood was taken via cheek bleed 24 and 72 hours post-infection and platelet counts were measured using an automated hematology analyzer.

Experiment [2] concerns DENV2. In words: DENV viral load by qRT-PCR in IFNR-KO mice. To be noted: DENV2 2×10^5 pfu i.p., ketanserin 8 mg/kg daily, 72 h post-infection. As for the experimental part:
(§1) (A) WT mice were treated with vehicle or ketanserin (8 mg/kg) prior to subcutaneous footpad injection with 2×10^5 pfu of DENV or PBS. At 72 h post-infection, popliteal lymph nodes were isolated for viral quantification by qRT-PCR. […] (B-C) WT mice were infected with DENV2 (1×10^6 pfu, i.p.) and treated daily with either 8 mg/kg of ketanserin or vehicle. […] (C) At 1 day post-infection, the spleen was harvested and DENV2 was quantified by qRT-PCR.
(§2) Since a concern with inhibition of host factors would be the effect on viral replication, the levels of viremia following DENV infection were measured. WT mice were treated with either ketanserin or vehicle prior to a subcutaneous footpad injection. The draining lymph nodes were then harvested to determine if targeting 5HT2A receptors had any influence on viral load. […] Subsequently it was determined whether targeting serotonin would have an effect on viral load in systemic infection. WT mice were treated with either ketanserin or vehicle following DENV systemic infection via intraperitoneal injection. Serum was isolated at days 1 and 3 post-infection and viremia quantified. […] The second model of severe DENV infection, the IFN-α,β, γ-R^−/− (IFNR-KO) mice, were subsequently infected and treated with either ketanserin or vehicle. These mice are known to have higher levels of viremia than WT mice.

Experiment [3] concerns DENV2. In words: DENV viral load by qRT-PCR in WT mice. As for the experimental part:
as §1, §2

`O=C(c1ccc(F)cc1)C1CCN(CCn2c(=O)[nH]c3ccccc3c2=O)CC1` [ketanserin, 3-[2-[4-(4-fluorobenzoyl)piperidin-1-yl]ethyl]-1H-quinazoline-2,4-dione]: the “platelet counts (DENV2-induced thrombocytopenia)” value in experiment [1] is given as “able to maintain the initial normal platelet count”. Further, in experiment [2], the “viral load in serum” value is “no difference in viral load” and the “viral load in spleen” value is “no difference in viral load”. For the same compound, in experiment [3] (DENV2 1×10^6 pfu i.p., ketanserin 8 mg/kg daily, 1 day post-infection), the “viral load in the spleen” value is reported as “did not affect viral load in the spleen”. For the same compound, the “serum viremia (DENV genome copy numbers)” value in experiment [3] (DENV2 1×10^6 pfu i.p., ketanserin 8 mg/kg daily, days 1 and 3 post-infection, n=5) is given as “no significant difference in serum DENV genome copy numbers at both time points”. Besides, the “viral load in the draining (popliteal) lymph node” value in experiment [3] (ketanserin 8 mg/kg prior to subcutaneous footpad injection of 2×10^5 pfu DENV, 72 h post-infection) is recorded as “did not affect viral load in the draining lymph node”.

The values are drawn from patent US20200352947A1, “USE OF SEROTONERGIC DRUGS TO TREAT VIRUS-INDUCED THROMBOCYTOPENIA” (NATIONAL UNIVERSITY OF SINGAPORE, priority 2017, published 2020).
